Target: T1, F508del in NIH 3T3 cells (Homo sapiens, UniProt P13569, DEL508-508)
T1 construct: expressed in transfected cells
Assay: 3T3 assay: membrane potential optical assay for F508del correction
Format: cell-based, mouse
Conditions: for EC50: F508del NIH 3T3 cells, compound incubation 18-24 hours at 37° C., forskolin activation, read-out: 3T3 EC50; for Emax: NIH3T3, F508del NIH 3T3 cells, efficacy compared to lumacaftor in combination with acutely added 300 nM Ivacaftor, read-out: 3T3 Max Activity (%)
Excerpt: a. Membrane Potential Optical Methods for Assaying F508del Modulation Properties of Compounds
The assay utilizes fluorescent voltage sensing dyes to measure changes in membrane potential using a fluorescent plate reader (e.g., FLIPR III, Molecular Devices, Inc.) as a readout for increase in functional F508del in NIH 3T3 cells. The driving force for the response is the creation of a chloride ion gradient in conjunction with channel activation by a single liquid addition step after the cells have previously been treated with compounds and subsequently loaded with a voltage sensing dye.
b. Identification of Corrector Compounds
To identify correctors of F508del, a single-addition HTS assay format was developed. This HTS assay utilizes fluorescent voltage sensing dyes to measure changes in membrane potential on the FLIPR III as a measurement for increase in gating (conductance) of F508del in F508del NIH 3T3 cells. The F508del NIH 3T3 cell cultures were incubated with the corrector compounds at a range of concentrations for 18-24 hours at 37° C., and subsequently loaded with a redistribution dye. The driving force for the response is a Cl^− ion gradient in conjunction with channel activation with forskolin in a single liquid addition step using a fluorescent plate reader such as FLIPR III.
Bath Solution #1: (in mM) NaCl 160, KCl 4.5, CaCl2 2, MgCl2 1, HEPES 10, pH 7.4 with NaOH.
Chloride-free bath solution: Chloride salts in Bath Solution #1 (above) are substituted with gluconate salts.
NIH3T3 mouse fibroblasts stably expressing F508del are used for optical measurements of membrane potential. The cells are maintained at 37° C. in 5% CO2 and 90% humidity in Dulbecco's modified Eagle's medium supplemented with 2 mM glutamine, 10% fetal bovine serum, 1×NEAA, b-ME, 1× pen/strep, and 25 mM HEPES in 175 cm^2 culture flasks. For all optical assays, the cells were seeded at ˜20,000/well in 384-well Matrigel-coated plates. For the correction assays, the cells are cultured at 37° C. with and without compounds for 16-24 hours.

T1 sequence (P13569 with tags, fused parts or gaps DEL508-508): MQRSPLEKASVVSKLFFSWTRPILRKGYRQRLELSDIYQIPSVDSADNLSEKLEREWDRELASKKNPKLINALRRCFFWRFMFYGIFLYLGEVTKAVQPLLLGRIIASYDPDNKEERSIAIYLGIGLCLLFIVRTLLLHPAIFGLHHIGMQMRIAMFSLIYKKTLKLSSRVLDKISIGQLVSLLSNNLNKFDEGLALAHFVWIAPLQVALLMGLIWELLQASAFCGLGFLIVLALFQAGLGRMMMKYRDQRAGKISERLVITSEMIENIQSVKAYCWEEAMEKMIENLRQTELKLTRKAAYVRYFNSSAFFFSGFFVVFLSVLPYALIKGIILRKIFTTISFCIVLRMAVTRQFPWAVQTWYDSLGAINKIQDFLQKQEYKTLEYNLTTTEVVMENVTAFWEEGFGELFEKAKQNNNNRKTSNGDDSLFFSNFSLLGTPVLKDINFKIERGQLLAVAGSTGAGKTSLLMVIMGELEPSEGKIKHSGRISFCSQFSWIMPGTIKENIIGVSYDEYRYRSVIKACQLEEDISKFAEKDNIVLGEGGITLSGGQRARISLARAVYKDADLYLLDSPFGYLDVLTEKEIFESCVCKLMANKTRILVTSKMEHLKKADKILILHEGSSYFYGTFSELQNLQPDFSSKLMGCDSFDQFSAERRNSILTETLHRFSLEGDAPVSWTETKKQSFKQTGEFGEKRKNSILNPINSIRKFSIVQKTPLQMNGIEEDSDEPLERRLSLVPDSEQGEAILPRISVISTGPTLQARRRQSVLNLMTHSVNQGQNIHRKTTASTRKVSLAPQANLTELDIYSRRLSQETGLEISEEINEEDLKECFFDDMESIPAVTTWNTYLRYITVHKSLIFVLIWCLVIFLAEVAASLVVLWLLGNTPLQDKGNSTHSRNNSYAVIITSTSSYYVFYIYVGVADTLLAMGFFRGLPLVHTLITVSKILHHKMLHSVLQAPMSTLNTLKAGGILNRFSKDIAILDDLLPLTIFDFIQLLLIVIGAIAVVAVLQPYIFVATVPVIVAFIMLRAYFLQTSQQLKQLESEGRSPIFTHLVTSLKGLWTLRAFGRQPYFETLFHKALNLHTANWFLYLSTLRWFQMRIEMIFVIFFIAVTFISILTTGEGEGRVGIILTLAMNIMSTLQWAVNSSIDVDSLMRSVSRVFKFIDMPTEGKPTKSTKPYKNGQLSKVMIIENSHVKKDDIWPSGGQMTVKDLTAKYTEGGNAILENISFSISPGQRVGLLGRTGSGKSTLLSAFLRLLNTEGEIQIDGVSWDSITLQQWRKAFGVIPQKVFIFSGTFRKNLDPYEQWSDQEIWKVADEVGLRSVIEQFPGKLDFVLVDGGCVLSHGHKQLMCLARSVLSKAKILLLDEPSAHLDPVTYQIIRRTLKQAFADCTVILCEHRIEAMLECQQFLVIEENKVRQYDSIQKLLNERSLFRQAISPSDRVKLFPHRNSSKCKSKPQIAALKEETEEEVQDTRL

EC50 [µM] | Emax [%] | Structure (SMILES)
< 1 | > 60 | Cc1cccc(C)c1-c1cc2nc(n1)NS(=O)(=O)c1cccc(c1)NC(=O)CCCCCO2 [Compound 97]
3 to 30 | > 60 | Cc1cccc(C)c1-c1cc2nc(n1)NS(=O)(=O)c1cccc(c1)NC(=O)c1cc(ccc1N1CCC(O)CC1)O2 [Compound 100]
3 to 30 | > 60 | O=C1Nc2cccc(c2)S(=O)(=O)Nc2nc(cc(-c3ccco3)n2)Oc2cccc1c2 [Compound 86]
< 1 | > 60 | Cc1cccc(C)c1-c1cc2nc(n1)NS(=O)(=O)c1cccc(c1)NC(=O)C(NC(=O)OC(C)(C)C)CCO2 (stereo not shown) [Compound 95]
3 to 30 | > 60 | Nc1ccccc1-c1cc2nc(n1)NS(=O)(=O)c1cccc(c1)NC(=O)c1cccc(c1)O2 [Compound 83]
< 1 | > 60 | Cc1cccc(C)c1-c1cc2nc(n1)NS(=O)(=O)c1cccc(c1)NC(=O)c1cccc(c1C)O2 (racemic) [Compound 59, 5-(2,6-Dimethylphenyl)-21-methyl-9,9-dioxo-2-oxa-9λ^6-thia-6,8,15,23-tetraazatetracyclo[15.3.1.13,7.110,14]tricosa-1(20),3,5,7(23),10(22),11,13,17(21),18-nonaen-16-one]
– | < 30 | Cc1nn(C)c(C)c1-c1cc2nc(n1)NS(=O)(=O)c1cccc(c1)NC(=O)c1cccc(c1)O2 [Compound 85]
1 to 3 | > 60 | Cc1cccc(C)c1-c1cc2nc(n1)NS(=O)(=O)c1cccc(c1)NC(=O)c1cc(ccc1NCCN)O2 [Compound 105]
3 to 30 | 30 to 60 | Cc1cccc(C)c1-c1cc2nc(n1)NS(=O)(=O)c1cccc(c1)NC(=O)c1cc(cc(N3CCNCC3)c1)O2 [Compound 99]
< 1 | > 60 | CC1(C)CCCCC1c1cc2nc(n1)NS(=O)(=O)c1cccc(c1)NC(=O)c1cccc(c1)O2 (stereo not shown) [Compound 75, 5-(2,2-Dimethylcyclohexyl)-9,9-dioxo-2-oxa-9λ^6-thia-6,8,15,23-tetraazatetracyclo[15.3.1.13,7.110,14]tricosa-1(20),3,5,7(23),10(22),11,13,17(21),18-nonaen-16-one]
3 to 30 | 30 to 60 | CNCCN(C)c1ccc2cc1C(=O)Nc1cccc(c1)S(=O)(=O)Nc1nc(cc(-c3c(C)cccc3C)n1)O2 [Compound 104]
1 to 3 | > 60 | Cc1cccc(C)c1-c1cc2nc(n1)NS(=O)(=O)c1cccc(c1)NC(=O)C1CC(CN1C(=O)OC(C)(C)C)O2 (stereo not shown) [Compound 98]
< 1 | – | Cc1cccc(C)c1-c1cc2nc(n1)NS(=O)(=O)c1cccc(c1)NC(=O)c1cccc(c1C)O2 (single isomer, unassigned) [Compound 61, (−)-5-(2,6-dimethylphenyl)-21-methyl-9,9-dioxo-2-oxa-9λ^6-thia-6,8,15,23-tetraazatetracyclo[15.3.1.13,7.110,14]tricosa-1(20),3,5,7(23),10(22),11,13,17(21),18-nonaen-16-one]
1 to 3 | > 60 | COc1ccccc1-c1cc2nc(n1)NS(=O)(=O)c1cccc(c1)NC(=O)c1cccc(c1)O2 [Compound 87]
3 to 30 | > 60 | Cc1cccc(C)c1-c1cc2nc(n1)NS(=O)(=O)c1cccc(c1)NC(=O)c1cc(ccc1NC1CCCC(N)C1)O2 (stereo not shown) [Compound 101]
3 to 30 | > 60 | Cc1ccccc1-c1cc2nc(n1)NS(=O)(=O)c1cccc(c1)N(C)C(=O)c1cccc(c1)O2 [Compound 115]
1 to 3 | 30 to 60 | Cc1cccc(C)c1-c1cc2nc(n1)NS(=O)(=O)c1cccc(c1)NC(=O)c1cccc(c1)CCO2 [Compound 94]
– | < 30 | Cc1ccccc1-c1cc2nc(n1)NS(=O)(=O)c1cccc(c1)N(C)C(=O)c1ccc(cc1)O2 [Compound 113]
3 to 30 | > 60 | O=C1Nc2cccc(c2)S(=O)(=O)Nc2nc(cc(-c3ccccc3O)n2)Oc2cccc1c2 [Compound 84]
3 to 30 | > 60 | Cc1cccc(C)c1-c1cc2nc(n1)NS(=O)(=O)c1cccc(c1)NC(=O)c1cc(ccc1N1CCNCC1)O2 [Compound 106]
1 to 3 | > 60 | O=C1Nc2cccc(c2)S(=O)(=O)Nc2nc(cc(-c3ccccc3)n2)Oc2cccc1c2 [Compound 82]
– | 30 to 60 | CNC1CCCCC1N(C)c1ccc2cc1C(=O)Nc1cccc(c1)S(=O)(=O)Nc1nc(cc(-c3c(C)cccc3C)n1)O2 (stereo not shown) [Compound 102]
< 1 | > 60 | Cc1cccc(C)c1-c1cc2nc(n1)NS(=O)(=O)c1cccc(c1)NC(=O)c1cc(ccc1N1CCCCC1)O2 [Compound 56, 5-(2,6-Dimethylphenyl)-9,9-dioxo-18-(1-piperidyl)-2-oxa-9λ^6-thia-6,8,15,23-tetraazatetracyclo[15.3.1.13,7.110,14]tricosa-1(21),3,5,7(23),10(22),11,13,17,19-nonaen-16-one]
1 to 3 | > 60 | Cc1cccc(C)c1-c1cc2nc(n1)NS(=O)(=O)c1cccc(c1)NC(=O)c1cc(ccc1NC1CCCCC1N)O2 (stereo not shown) [Compound 103]
1 to 3 | > 60 | Cc1cccc(C)c1-c1cc2nc(n1)NS(=O)(=O)c1cccc(c1)NC(=O)C(N)CCO2 (stereo not shown) [Compound 96]
< 1 | > 60 | Cc1cccc(C)c1-c1cc2nc(n1)NS(=O)(=O)c1cccc(c1)NC(=O)c1cccc(c1Cl)O2 [Compound 116]
< 1 | > 60 | Cc1cccc(C)c1-c1cc2nc(n1)NS(=O)(=O)c1cccc(c1)NC(=O)[C@H]1C[C@@H](CN(C(=O)OC(C)(C)C)C1)O2 (single isomer, unassigned) [Compound 4]
< 1 | > 60 | Cc1cccc(C)c1-c1cc2nc(n1)NS(=O)(=O)c1cccc(c1)NC(=O)c1cccc(c1C)O2 (single isomer, unassigned) [Compound 60, (+)-5-(2,6-Dimethylphenyl)-21-methyl-9,9-dioxo-2-oxa-9λ^6-thia-6,8,15,23-tetraazatetracyclo[15.3.1.13,7.110,14]tricosa-1(20),3,5,7(23),10(22),11,13,17(21),18-nonaen-16-one]
